Data set [1] is described as follows: Cytotoxicity, two-dimensional (monolayer) assay. The format is cell-based. The settings on record: human, HEK-293 cells, HEK-293 monolayer, necrotic cells by PI/Hoechst 33342 imaging, ± SEM, n=4, read-out: IC50, cytotoxic activity, two-dimensional assay; for IC50 at 10 min: 10 mins incubation; for IC50 at 1 h: 1 h incubation; for IC50 at 24 h: 24 hrs incubation; for IC50 at 72 h: 72 hrs incubation. The protocol: Screening of the cytotoxic activity of compounds in a two-dimensional (2D) format was designed in accordance with the previously obtained data[32] for the HeLa cell line. The cytotoxic action of peptides was quantified in the 96-well plate format at four time points after adding compounds – at 10 min, 1 h, 24 h and 72 h. […] The selected IC50 values for different incubation times are exemplified in Fig. 2.
Essential experimental details have been previously published by us.[79]
The cells were maintained in a culture till 70–80% confluence was reached and then seeded in a 96-well black-wall transparent-bottom plate (6055302, Revvity) with 200 μL of appropriate medium per well. The seeding density has been previously determined in the optimization experiments for each cell line: 3500 cells per well for 4T1; 20 000 cells per well for HEK-293; 20 000 cells per well for HeLa; 25 000 cells per well for HepG2; 8000 cells per well for LLC; 15 000 cells per well for MDA-MB-231. After 24 h incubation at 37 °C, the medium was removed and 100 μL of fresh medium was added. Two-fold serial dilution of compounds (256–0.5 μM, 11 points for closed forms of photoswitchable peptides; 128–0.25 μM, 11 points for open forms; 64–0.5, 8 points for GS) in the medium was prepared and dispensed in 100 μL per well. The plates were incubated with compounds for 10 min, 1 h, 24 h and 72 h. The staining solution consisting of 25 μM of Hoechst 33342 (62249, Thermo Fisher), 5 μM of propidium iodide (J66764-MC, Thermo Fisher) or ethidium homodimer-1 (E1169, Thermo Fisher), with 10% FBS in DPBS (21600044, Thermo Fisher) was prepared and added to wells in a volume of 50 μL for 20 min. Fluorescence images were acquired using an INCell Analyzer 6500 HS automatic imaging system with 20× objective lens (NA = 0.45) and 16 fields of view (FOV) per well. The numerical data were obtained using INCarta 1.13 and then analysed using GraphPad Prism 10.

Data set [2] relates to membrane-bound CALR on MDA-MB-231 cells. Briefly: CALR exposure, cytofluorimetric measurements. The settings on record: concentrations higher than IC50 (16 and 32 μM), flow cytometry. The format is cell-based, human. The protocol: We performed fluorescence microscopy using an Alexa Fluor 647 anti-CALR antibody for quantifying the CALR exposure on the surface of cells. Confluent monolayer 4T1, HeLa, HepG2 and MDA-MB-231 cell cultures were incubated with GS and GS-derived peptides for 24 h followed by fixation, staining with the antibody and microscopic observation. Using the images, we calculated the total levels of the fluorescence signal per cell in each sample. […] While practically no enhancement in CALR exposure could be detected in the HeLa cell culture, a 4–7-fold enhancement is observed for HepG2 at 32 μM of GS, LMB002-open and LMB033-open. Then 8 and 16 μM of GS caused a 3-fold increase of CALR exposure in breast cancer cell lines 4T1 and MDA-MB-231. We noted no direct dose dependence of CALR release in our experiments. It may stem from the difference in the kinetics of CALR exposure. To examine the time dependence of the CALR exposure, cytofluorimetric experiments were conducted on the MDA-MB-231 cell line (Fig. 9) using an Alexa Fluor 647 anti-CALR antibody. In this experiment, 30 min, 3 h, 6 h and 24 h were the time points for monitoring the fraction of cells expressing CALR on their surface.
This is different from the release kinetics of ATP, which was released from the cytosol of the cells with compromised plasma membranes almost immediately after the treatment with our peptides. […]
(A flow cytometer gives signals particle by particle.)

Where [3] appears, read: 2D monolayer, Table S1 series (with LMB033).
The mark [4] stands for this setting: monolayer (2D), Table S2 series (with LMB002).

Each structure is given as a SMILES string. Read-outs that look alike come from different tables or passages of the source. Non-standard residues stand in square brackets, D forms with d. Residues, ends and D or L forms follow the SMILES beside them. Orn = NCCC[C@H](N)C(=O)O

As a reminder, the IC50 is the concentration at which inhibition is half-maximal.

Consider `CC(C)C[C@@H]1NC(=O)[C@H](CCCN)NC(=O)[C@H](C(C)C)NC(=O)[C@@H]2CCCN2C(=O)[C@@H](Cc2ccccc2)NC(=O)[C@H](CC(C)C)NC(=O)[C@H](CCCN)NC(=O)[C@H](C(C)C)NC(=O)[C@@H]2CCCN2C(=O)[C@@H](Cc2ccccc2)NC1=O` [Gramicidin S, gramicidin S] (cyclo(V[Orn]L[dF]PV[Orn]L[dF]P)), for which, in data set [1] (setting [3]), the IC50 at 10 min was determined as 12.9 ± 0.4 µM, the concentration for half-maximal inhibition (IC50) at 1 h amounted to 11.6 ± 0.1 µM, the half-maximal inhibitory concentration (IC50) at 24 h stood at 8.3 ± 0.2 µM and the IC50 at 72 h stood at 8.4 ± 0.7 µM. In data set [1] (setting [4]), the IC50 at 10 min is 15.4 ± 0.1 µM, the IC50 at 1 h worked out at 12.7 ± 0.2 µM, the IC50 at 24 h was 10.4 ± 0.1 µM and the IC50 at 72 h stood at 11.1 ± 0.1 µM. Besides, in data set [2], the “incubation time after which all cells exposed CALR on their surface” value is 3 h.

For the origin of these results see article PMC12013366, “In vitro evaluation of the immunogenic potential of gramicidin S and its photocontrolled analogues” (RSC Medicinal Chemistry, 2025).
